# Results as given in patent publication EP4800015A1, “AZABICYCLO DERIVATIVE AND PREPARATION METHOD THEREFOR, AND USE” (Zhejiang Hisun Pharmaceutical Co., Ltd., priority 2023, dated 2025).
# pIC50: −log10 of the molar value.
# Target: T1, recombinant human WRN (Homo sapiens, UniProt Q14191)
# T1 construct: purchased BPS 101264
# Experiment: Inhibition of WRN enzyme activity (ATPase), ADP-Glo Kinase Assay
# Format: biochemical
# Conditions: WRN protein 5 nM, Flap 0.1 nM, ATP 30 µM; read-out: IC50
# Source text: The following method was used to determine the degree of inhibition of recombinant human WRN ATPase activity by the compounds of the present disclosure in vitro. In this method, ADP-Glo™ Kinase Assay kit (catalog No. V9102) from Promega was used. Detailed experimental procedures can be found in the kit manual.
# The experimental procedure was briefly described as follows: test compounds were first dissolved in DMSO to prepare stock solutions, followed by serial dilution using reaction buffer (30 mM Tris, pH 7.5, 2 mM MgCl2, 50 mM NaCl, 0.02% BSA, 0.1% Pluronic F127), with final concentrations of test compounds in the reaction system ranging from 1000 nM to 0.004 nM; WRN protein (purchased from BPS, catalog No. 101264), substrate 5-flap oligonucleotide (Flap26) (synthesized by Shanghai Generay Biotech Co., Ltd., sequence 5'-[…]-3'), and ATP working solution (from ADP-Glo™ Kinase Assay kit component V915A) were prepared using reaction buffer. Reactions were performed in 384-well microplates. At first the compounds and recombinant human WRN protein (final concentration 5 nM) were added to the wells and the plate was incubated at room temperature for 15 minutes, then Flap solution (final concentration 0.1 nM) and ATP solution (final concentration 30 µM) were added to the reaction solution and the plate was incubated at room temperature for 10 minutes. Subsequently, 5 µL of ADP-Glo Reagent was added to the reaction system and incubated at room temperature for 40 minutes. Then 10 µL of Kinase Detection Reagent was added to the reaction system and incubated at room temperature for 30 minutes. After the incubation was completed, chemiluminescence intensity values of each well were measured using a microplate reader in luminescence mode. The percentage inhibition of the compounds at each concentration was calculated by comparison with the luminescence intensity values of the control group (0.1% DMSO), and IC50 values of compounds were obtained by nonlinear regression analysis of compound concentration logarithm-inhibition rate using GraphPad Prism 9 software, as shown in Table 1.
# The IC50 value results of the compounds of the present disclosure are expressed as AA and A, respectively as follows: "AA" indicates IC50 ≤ 1 nM; "A" indicates 1 nM < IC50 ≤ 100 nM. Table 1 IC50 of the compounds of the present disclosure for inhibiting WRN enzyme activity (ATPase)
# T1 sequence (Q14191 whole entry): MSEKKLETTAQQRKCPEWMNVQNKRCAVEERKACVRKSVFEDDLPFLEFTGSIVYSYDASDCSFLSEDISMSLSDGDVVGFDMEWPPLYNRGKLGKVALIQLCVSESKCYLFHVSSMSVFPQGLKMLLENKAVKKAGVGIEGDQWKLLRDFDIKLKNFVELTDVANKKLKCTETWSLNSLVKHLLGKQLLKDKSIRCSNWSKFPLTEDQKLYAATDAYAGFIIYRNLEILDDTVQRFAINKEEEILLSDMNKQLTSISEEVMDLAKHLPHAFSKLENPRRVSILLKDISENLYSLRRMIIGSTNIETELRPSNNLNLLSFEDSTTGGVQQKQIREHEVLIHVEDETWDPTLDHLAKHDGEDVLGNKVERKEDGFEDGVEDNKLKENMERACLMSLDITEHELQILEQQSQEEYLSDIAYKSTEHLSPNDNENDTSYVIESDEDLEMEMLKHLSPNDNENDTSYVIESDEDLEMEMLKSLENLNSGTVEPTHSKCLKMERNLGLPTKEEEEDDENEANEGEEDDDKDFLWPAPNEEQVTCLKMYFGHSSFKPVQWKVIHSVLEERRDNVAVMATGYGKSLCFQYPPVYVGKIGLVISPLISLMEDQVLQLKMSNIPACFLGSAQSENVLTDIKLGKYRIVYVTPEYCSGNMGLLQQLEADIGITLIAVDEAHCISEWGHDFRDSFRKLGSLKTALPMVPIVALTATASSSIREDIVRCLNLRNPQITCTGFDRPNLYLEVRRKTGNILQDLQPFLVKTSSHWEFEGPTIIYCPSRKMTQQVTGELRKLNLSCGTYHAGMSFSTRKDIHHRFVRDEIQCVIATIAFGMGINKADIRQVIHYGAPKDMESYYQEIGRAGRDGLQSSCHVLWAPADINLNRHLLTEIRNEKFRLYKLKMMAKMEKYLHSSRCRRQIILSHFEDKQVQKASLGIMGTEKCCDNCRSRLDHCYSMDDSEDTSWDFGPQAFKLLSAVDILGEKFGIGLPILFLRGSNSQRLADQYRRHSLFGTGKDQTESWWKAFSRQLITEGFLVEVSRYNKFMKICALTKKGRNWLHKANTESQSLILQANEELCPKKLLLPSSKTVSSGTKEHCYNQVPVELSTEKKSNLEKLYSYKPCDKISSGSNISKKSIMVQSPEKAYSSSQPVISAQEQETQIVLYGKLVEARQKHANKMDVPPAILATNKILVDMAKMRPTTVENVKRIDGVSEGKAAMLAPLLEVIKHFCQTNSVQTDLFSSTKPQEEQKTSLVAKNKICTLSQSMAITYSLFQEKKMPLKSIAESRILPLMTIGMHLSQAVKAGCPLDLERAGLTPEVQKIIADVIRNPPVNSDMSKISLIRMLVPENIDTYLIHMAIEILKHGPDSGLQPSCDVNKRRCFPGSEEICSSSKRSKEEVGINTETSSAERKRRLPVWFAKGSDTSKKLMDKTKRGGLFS
row,Structure (SMILES),pIC50
1,"CCc1c(N2CCN(C(=O)c3ncnc(C)c3O)CC2)c(=O)n2nc(C3=CC4CC4C3)nc2n1CC(=O)Nc1ccc(SC(F)(F)F)cc1 (centres unmarked) [Example 177, 2-(2-(bicyclo[3.1.0]hex-2-en-3-yl)-5-ethyl-6-(4-(5-hydroxy-6-methylpyrimidine-4-carbonyl)piperazin-1-yl)-7-oxo-[1,2,4]triazolo[1,5-a]pyrimidin-4(7H)-yl)-N-(4-((trifluoromethyl)thio)phenyl)ac etamide]",7.00 to 9.00
2,"CCc1c(N2CCCN(C(=O)c3ncnc(C)c3O)CC2)c(=O)n2nc(-c3ccc4c(c3)CCO4)nc2n1CC(=O)Nc1ccc(C(F)(F)F)cc1Cl [Example 107, N-(2-chloro-4-(trifluoromethyl)phenyl)-2-(2-(2,3-dihydrobenzofuran-5-yl)-5-ethyl-6-(4-(5-hydroxy-6-methylpyrimidine-4-carbonyl)-1,4-diazepan-1-yl)-7-oxo-[1,2,4]triazolo[1,5-a]pyrimidin-4(7 H)-yl)acetamide]",7.00 to 9.00
3,"CCc1c(N2CCN(C(=O)c3ncnc(C)c3O)CC2)c(=O)n2nc(C3=CC4(C3)CC(C(N)=O)C4)nc2n1CC(=O)Nc1ccc(C(F)(F)F)cc1Cl (centres unmarked) [Example 119, 6-(4-(2-((2-chloro-4-(trifluoromethyl)phenyl)amino)-2-oxoethyl)-5-ethyl-6-(4-(5-hydroxy-6-methylpyrimidine-4-carbonyl)piperazin-1-yl)-7-oxo-4,7-dihydro-[1,2,4]triazolo[1,5-a]pyrimidin-2-yl)spiro[3.3]hept-5-ene-2-carboxamide]",7.00 to 9.00
4,"CCc1c(N2CCN(C(=O)c3ccncc3O)CC2)c(=O)n2nc(C3=CCCCCC3)nc2n1CC(=O)Nc1ccc(C(F)(F)F)cc1C [Example 42, 2-(2-(cyclohept-1-en-1-yl)-5-ethyl-6-(4-(3-hydroxyisonicotinoyl)piperazin-1-yl)-7-oxo-[1,2,4]triazolo[1,5-a]pyrimidin-4(7H)-yl)-N-(2-methyl-4-(trifluoromethyl)phenyl)acetamide]",7.00 to 9.00
5,"CCc1c(N2CCN(C(=O)c3ncnc(C)c3O)CC2)c(=O)n2nc(/C=C(\C)C3CC3)nc2n1CC(=O)Nc1ccc(C(F)(F)F)cc1Cl [Example 36, (E)-N-(2-chloro-4-(trifluoromethyl)phenyl)-2-(2-(2-cyclopropylprop-1-en-1-yl)-5-ethyl-6-(4-(5-hydroxy-6-methylpyrimidine-4-carbonyl)piperazin-1-yl)-7-oxo-[1,2,4]triazolo[1,5-a]pyrimidin-4(7H)-yl)acetamide]",7.00 to 9.00
6,"CCc1c(N2CCN(C(=O)c3ccncc3O)CC2)c(=O)n2nc(C3=CC4CC(=O)CC4C3)nc2n1CC(=O)Nc1ccc(C(F)(F)F)cc1Cl (centres unmarked) [Example 14, N-(2-chloro-4-(trifluoromethyl)phenyl)-2-(5-ethyl-6-(4-(3-hydroxyisonicotinoyl)piperazin-1-yl)-7-oxo-2-(5-oxo-1,3a,4,5,6,6a-hexahydropentalen-2-yl)-[1,2,4]triazolo[1,5-a]pyrimidin-4(7H)-yl)a cetamide]",7.00 to 9.00
7,"CCc1c(N2CCN(C(=O)c3ccccc3O)CC2)c(=O)n2nc(C3=CCCCCC3)nc2n1CC(=O)Nc1ccc(C(F)(F)F)cc1Cl [Example 10, N-(2-chloro-4-(trifluoromethyl)phenyl)-2-(2-(cyclohept-1-en-1-yl)-5-ethyl-6-(4-(2-hydroxybenzoyl)piperazin-1-yl)-7-oxo-[1,2,4]triazolo[1,5-a]pyrimidin-4(7H)-yl)acetamide]",7.00 to 9.00
8,"Cc1ncnc(C(=O)N2CCN(c3c(C)n(CC(=O)Nc4ccc(C(F)(F)F)cc4Cl)c4nc(C5=CC6CC(=O)CC6C5)nn4c3=O)CC2)c1O (centres unmarked) [Example 32, N-(2-chloro-4-(trifluoromethyl)phenyl)-2-(6-(4-(5-hydroxy-6-methylpyrimidine-4-carbonyl)piperazin-1-yl)-5-methyl-7-oxo-2-(5-oxo-1,3a,4,5,6,6a-hexahydropentalen-2-yl)-[1,2,4]triazolo[1,5-a]pyrimidin-4(7H)-yl)acetamide]",7.00 to 9.00
9,"CCc1c(N2CCN(C(=O)c3ncnc(C)c3O)CC2)c(=O)n2nc(C(C)=C3CCC3)nc2n1CC(=O)Nc1ccc(C(F)(F)F)cc1Cl [Example 60, N-(2-chloro-4-(trifluoromethyl)phenyl)-2-(2-(1-cyclobutylideneethyl)-5-ethyl-6-(4-(5-hydroxy-6-methylpyrimidine-4-carbonyl)piperazin-1-yl)-7-oxo-[1,2,4]triazolo[1,5-a]pyrimidin-4(7H)-yl)ace tamide]",7.00 to 9.00
10,"CCc1c(N2CCN(C(=O)c3ncnc(C)c3O)CC2)c(=O)n2nc(C3=CC4C/C(=N/OC)CC4C3)nc2n1CC(=O)Nc1ccc(C(F)(F)F)cc1Cl (centres unmarked) [Example 122, (E)-N-(2-chloro-4-(trifluoromethyl)phenyl)-2-(5-ethyl-6-(4-(5-hydroxy-6-methylpyrimidine-4-carbonyl)piperazin-1-yl)-2-(5-(methoxyimino)-1,3a,4,5,6,6a-hexahydropentalen-2-yl)-7-oxo-[1,2,4]triazolo[1,5-a]pyrimidin-4(7H)-yl)acetamide]",7.00 to 9.00

# Continued, values first:
row,pIC50,Structure (SMILES)
1,7.00 to 9.00,"CCc1c(N2CCN(C(=O)c3ncnc(C)c3O)CC2)c(=O)n2nc(C3=CCC4(CC3)CC4)nc2n1CC(=O)Nc1ccc(C(F)(F)F)cc1Cl [Example 64, N-(2-Chloro-4-(trifluoromethyl)phenyl)-2-(5-ethyl-6-(4-(5-hydroxy-6-methylpyrimidine-4-carbonyl)piperazin-1-yl)-7-oxo-2-(spiro[2.5]oct-5-en-6-yl)-[1,2,4]triazolo[1,5-a]pyrimidin-4(7H)-yl)ac etamide]"
2,7.00 to 9.00,"CCc1c(N2CCN(C(=O)c3ncnc(C)c3O)CC2)c(=O)n2nc(-c3ccc4sc(C)nc4c3)nc2n1CC(=O)Nc1ccc(C(F)(F)F)cc1Cl [Example 110, N-(2-chloro-4-(trifluoromethyl)phenyl)-2-(5-ethyl-6-(4-(5-hydroxy-6-methylpyrimidine-4-carbonyl)piperazin-1-yl)-2-(2-methylbenzo[d]thiazol-5-yl)-7-oxo-[1,2,4]triazolo[1,5-a]pyrimidin-4(7H)-yl)acetamide]"
3,7.00 to 9.00,"CCc1c(N2CCN(C(=O)c3ncnc(C)c3O)CC2)c(=O)n2nc(-c3ccc4c(c3)CN(CC(F)(F)F)CCO4)nc2n1CC(=O)Nc1ccc(C(F)(F)F)cc1Cl [Example 180, N-(2-chloro-4-(trifluoromethyl)phenyl)-2-(5-ethyl-6-(4-(5-hydroxy-6-methylpyrimidine-4-carbonyl)piperazin-1-yl)-7-oxo-2-(4-(2,2,2-trifluoroethyl)-2,3,4,5-tetrahydrobenzo[f][1,4]oxazepin-7-yl) -[1,2,4]triazolo[1,5-a]pyrimidin-4(7H)-yl)acetamide]"
4,7.00 to 9.00,"CCc1c(N2CCN(C(=O)c3ncnc(C)c3O)CC2)c(=O)n2nc(-c3cccc4occc34)nc2n1CC(=O)Nc1ccc(C(F)(F)F)cc1Cl [Example 124, 2-(2-(benzofuran-4-yl)-5-ethyl-6-(4-(5-hydroxy-6-methylpyrimidine-4-carbonyl)piperazin-1-yl)-7-oxo-[1,2,4]triazolo[1,5-a]pyrimidin-4(7H)-yl)-N-(2-chloro-4-(trifluoromethyl)phenyl)acetamide]"
5,7.00 to 9.00,"CCc1c(N2CCN(C(=O)c3ncnc(C)c3O)CC2)c(=O)n2nc(N3CCC3)nc2n1CC(=O)Nc1ccc(C(F)(F)F)cc1Cl [Example 7, 2-(2-(azetidin-1-yl)-5-ethyl-6-(4-(5-hydroxy-6-methylpyrimidine-4-carbonyl)piperazin-1-yl)-7-oxo-[1,2,4]triazolo[1,5-a]pyrimidin-4(7H)-yl)-N-(2-chloro-4-(trifluoromethyl)phenyl)acetamide]"
6,7.00 to 9.00,"CCc1c(N2CCN(C(=O)c3ncnc(C)c3O)CC2)c(=O)n2nc(-c3ccc4c(c3)ncn4C)nc2n1CC(=O)Nc1ccc(C(F)(F)F)cc1Cl [Example 111, N-(2-chloro-4-(trifluoromethyl)phenyl)-2-(5-ethyl-6-(4-(5-hydroxy-6-methylpyrimidine-4-carbonyl)piperazin-1-yl)-2-(1-methyl-1H-benzo[d]imidazol-5-yl)-7-oxo-[1,2,4]triazolo[1,5-a]pyrimidin-4(7H)-yl)acetamide]"
7,7.00 to 9.00,"CCc1c(N2CCN(C(=O)c3ncnc(C)c3O)CC2)c(=O)n2nc(NCCCCl)nc2n1CC(=O)Nc1ccc(C(F)(F)F)cc1Cl [Example 15, N-(2-chloro-4-(trifluoromethyl)phenyl)-2-(2-((3-chloropropyl)amino)-5-ethyl-6-(4-(5-hydroxy-6-methylpyrimidine-4-carbonyl)piperazin-1-yl)-7-oxo-[1,2,4]triazolo[1,5-a]pyrimidin-4(7H)-yl)ace tamide]"
